# In patent US20220403364A1, “BACTERIA IN 3D POROUS MEDIA” (The Trustees of Princeton University, priority 2019, published 2022):
# How the values were obtained:
# bacteria [1] = test: bacterial growth in liquid LB media with no shaking, with antibiotic (light absorbance at 600 nm); type: cell-based
# Experimental: (§1) In both figures, different concentrations of ampicillin were tested 1 μg/ml (ref. 511, 521), 2 μg/ml (ref 512, 522), 3 μg/ml (ref 513, 523), 4 μg/ml (ref 514, 524) and 6 μg/ml (ref 515, 525). For FIG. 6B, the different concentrations were added to bacteria in liquid LB media with no shaking.
# (§2) In FIGS. 6A-6C, the levels of bacteria were monitored by measuring light absorbance at 600 nm. In some embodiments, the cells or media is irradiated with light from a light source positioned above the cells, and a lens or sensor positioned below the cells then captures the light either being emitted from the cells (i.e., the intensity of light being emitted by a marker gene, etc.) or being transmitted through the cells (i.e., not being absorbed). A processor can then be used to quantify the measured light or sensor signals. Further a processor can also be used to convert the measured light or sensor signals into concentrations or bacterial cell counts, via, e.g., calibration curves. Based on that, various antibiotic performance characteristics can be determined—MIC, minimal bactericidal concentration (MBC), etc.
# bacteria [2] = test: bacterial growth in the 3D porous medium with antibiotic (light absorbance at 600 nm); type: cell-based; details: porous media
# Experimental: In some embodiments, changes in growth/motility due to changes in antibiotic or antibiotic concentrations can be quantified. […] Using an 0.81% gel with different concentrations of kanamycin ([…] (ref 504), 317.5 μg/ml (ref 503), 156.25 μg/ml (ref 502), and 78.125 μg/ml (ref 501)), it can be seen that for the two highest concentrations, there was no growth.
# as §1, §2
compound,measurement,setting,value
CC1(C)S[C@@H]2[C@H](NC(=O)[C@H](N)c3ccccc3)C(=O)N2[C@H]1C(=O)O [ampicillin],bacterial growth,"bacteria [1]; ampicillin 1 μg/ml, FIG. 6B ref 511",growth was detected
same,bacterial growth,"bacteria [1]; ampicillin 2 μg/ml, FIG. 6B ref 512",growth was detected
same,bacterial growth,"bacteria [1]; ampicillin 3 μg/ml, FIG. 6B ref 513",growth was detected
same,bacterial growth,"bacteria [1]; ampicillin 4 μg/ml, FIG. 6B ref 514",no growth
same,bacterial growth,"bacteria [1]; ampicillin 6 μg/ml, FIG. 6B ref 515",no growth
same,bacterial growth,"bacteria [2]; ampicillin 1 μg/ml, FIG. 6C ref 521",showed growth
same,bacterial growth,"bacteria [2]; ampicillin 2 μg/ml, FIG. 6C ref 522",only the 1 μg/ml concentration showed growth
same,bacterial growth,"bacteria [2]; ampicillin 3 μg/ml, FIG. 6C ref 523",only the 1 μg/ml concentration showed growth
same,bacterial growth,"bacteria [2]; ampicillin 4 μg/ml, FIG. 6C ref 524",only the 1 μg/ml concentration showed growth
same,bacterial growth,"bacteria [2]; ampicillin 6 μg/ml, FIG. 6C ref 525",only the 1 μg/ml concentration showed growth
